Data published in paper PMC8290231 (Cancer Medicine, 2021).
Read-outs that look alike come from different tables or passages of the source. Blank lines part the entries; values can stand above or below the compound they belong to.

Key:
H1581 = assay: CCK-8 cell proliferation assay; format: cell-based; details: Homo sapiens, read-out: antiproliferative IC50, H1581
Experimental: (§1) The base medium for MDA‐MB‐453 cell line is DMEM medium (CORNING, USA). All other cell lines were cultured in RPMI‐1640 medium supplemented with 10% FBS, 100 U/ml of penicillin, and […] of streptomycin in 5% CO2 at 37℃. The cells in the logarithmic growth phase were used for the experiments.
(§2) Cells were seeded in 96‐well plate in complete medium (1000–6000 cells/well) and cultured for overnight. Then the cells were exposed to gradient concentrations (0.0005–10 μM) of compounds. Cell proliferation was analyzed by Cell Counting Kit 8 (CK04, Dojindo Laboratories, Japan) after co‐incubation for a further 72 h. IC50 values were calculated by fitting of concentration–response curves using GraphPad Prism 8.01 software. Each assay was repeated at least three times.
(§3) The expression and activation levels of FGFR1–4 in these cells were determined via western blot experiments (Figure S1).

MDA‐MB‐231 = assay: CCK-8 cell proliferation assay; format: cell-based; details: Homo sapiens, MDA-MB-231, 72 h
Experimental: as §1, §2, §3

A549 = assay: CCK-8 cell proliferation assay; format: cell-based; details: Homo sapiens, A549, 72 h, read-out: antiproliferative IC50, A549
Experimental: as §1, §2, §3

A204 = assay: CCK-8 cell proliferation assay; format: cell-based; details: Homo sapiens, read-out: antiproliferative IC50, A204
Experimental: as §1, §2, §3

RT112 = assay: CCK-8 cell proliferation assay; format: cell-based; details: Homo sapiens, read-out: antiproliferative IC50, RT112
Experimental: as §1, §2, §3

NCI‐H716 = assay: CCK-8 cell proliferation assay; format: cell-based; details: Homo sapiens, read-out: antiproliferative IC50, NCI‐H716
Experimental: as §1, §2, §3

MDA‐MB‐453 = assay: CCK-8 cell proliferation assay; format: cell-based; details: Homo sapiens, read-out: antiproliferative IC50, MDA‐MB‐453
Experimental: as §1, §2, §3

MKN‐1 = assay: CCK-8 cell proliferation assay; format: cell-based; details: Homo sapiens, read-out: antiproliferative IC50, MKN‐1
Experimental: as §1, §2, §3

KATOIII = assay: CCK-8 cell proliferation assay; format: cell-based; details: Homo sapiens, KATO III, read-out: antiproliferative IC50, KATOIII
Experimental: as §1, §2, §3

Ba/F3(+IL‐3) = assay: CCK-8 proliferation assay in parental Ba/F3 cells; format: cell-based; details: Mus musculus, read-out: IC50 (μΜ) Ba/F3(+IL‐3)
Experimental: (§4) The Ba/F3 cell lines stably expressing FGFR1, FGFR1‐V561M, FGFR1‐V561F, FGFR1‐K656N, and FGFR1‐K656E were self‐established through electroporation pCDNA3.1‐TEL plasmids using the Amaxa Cell Line Nucleofector Kit V (Lonza, Cologne, Germany). Stable cell lines were selected by G418 (Merck, USA) and then withdrawal of IL‐3 (R&D). […] Parental Ba/F3 cells were maintained in RPMI 1640 supplemented with 10% FBS, 100 U/ml of penicillin, […] of streptomycin, and 10 ng/ml of IL‐3, while all Ba/F3 stable cell lines were cultured in the same medium without IL‐3.
as §2
(§5) There is, however, no commercially available FGFR1 mutant kinase to validate this. Therefore, we constructed Ba/F3 model cells stably expressing FGFR1‐WT, K656E, K656N, V561M, and V561F mutations.

Ba/F3‐FGFR1‐K656E = assay: CCK-8 proliferation assay in Ba/F3 stable cells; format: cell-based; details: Mus musculus, BaF3, 72 h, read-out: IC50 (μΜ) Ba/F3‐FGFR1‐K656E
Experimental: as §4, §2, §5

Ba/F3‐FGFR1‐V561M = assay: CCK-8 proliferation assay in Ba/F3 stable cells; format: cell-based
Experimental: as §4, §2, §5

Ba/F3‐FGFR1‐K656N = assay: CCK-8 proliferation assay in Ba/F3 stable cells; format: cell-based; details: Mus musculus, BaF3, 72 h, read-out: IC50 (μΜ) Ba/F3‐FGFR1‐K656N
Experimental: as §4, §2, §5

Ba/F3‐FGFR1‐V561F [1] = assay: CCK-8 proliferation assay in Ba/F3 stable cells; format: cell-based; details: Mus musculus, BaF3, 72 h, read-out: IC50 (μΜ) Ba/F3‐FGFR1‐V561F
Experimental: as §4, §2, §5

Ba/F3‐FGFR1 = assay: CCK-8 proliferation assay in Ba/F3 stable cells; format: cell-based; details: Mus musculus, BaF3, 72 h, read-out: IC50 (μΜ) Ba/F3‐FGFR1
Experimental: as §4, §2, §5

FGFR1‐V561M = details: no reference given; cited from earlier work
FGFR1 WT = details: no reference given; cited from earlier work
SNU16 = assay: CCK-8 cell proliferation assay; format: cell-based; details: Homo sapiens, SNU-16, 72 h, read-out: antiproliferative IC50, SNU16
Experimental: as §1, §2, §3

Ba/F3‐FGFR1‐V561F [2] = assay: Cell cycle analysis by flow cytometry (propidium iodide); format: cell-based; details: 1000 nM
Experimental: About 6 × 10^5 cells were re‐suspended in 150 μl of BD Cytofix/Cytoperm buffer solution I for 10 min at room temperature. The cell suspensions were added with BD Cytofix/Cytoperm buffer solution II and incubated with another 10 min at room temperature, and then incubated with 200 μl of propidium iodide buffer (0.1 mg/ml) in the dark for 10 min at 4℃. Assays were performed with a Guava easyCyte flow cytometer (Merck, USA).

Ba/F3‐FGFR1‐V561F [3] = assay: Apoptosis assay by flow cytometry (Annexin V / 7-AAD); format: cell-based; details: 1000 nM
Experimental: After incubation, cells were collected and washed twice with pre‐cold PBS. About 6 × 10^5 cells were resuspended in 100 μl of 1× BD binding buffer solution (#556454, BD), and then stained with 7‐ADD (#559925, BD) and Annexin V‐PE (#556422, BD) in the dark for 15 min. Finally, 400 μl of 1×BD binding buffer solution were added to stop dyeing. The cells were then measured on a Guava easyCyte flow cytometer (Merck, USA).

IC50 (H1581; NCI-H1581, FGFR1 amplification, CCK-8, 72 h): > 10000 nM
IC50 (A549; negative control, CCK-8, 72 h): > 10000 nM
IC50 (MKN‐1; MKN-1, negative control, CCK-8, 72 h): > 10000 nM
SMILES: COCCNc1cc(NC(=O)N2CCCc3cc(CN4CCN(C)CC4=O)c(C=O)nc32)ncc1C#N [FGF401]
IC50 (MDA‐MB‐231; read-out: antiproliferative IC50, MDA‐MB‐231, negative control, CCK-8, 72 h): > 10000 nM
IC50 (A204; A204, FGFR1 amplification, CCK-8, 72 h): 8250 ± 708 nM
IC50 (RT112; RT-112, FGFR3‐TACC3, CCK-8, 72 h): > 10000 nM
IC50 (NCI‐H716; NCI-H716, FGFR2 amplification, CCK-8, 72 h): > 10000 nM
IC50 (MDA‐MB‐453; MDA-MB-453, FGFR4‐Y367C, CCK-8, 72 h): 62.3 ± 27.7 nM
IC50 (KATOIII; FGFR2 amplification, CCK-8, 72 h): 9380 ± 2860 nM

SMILES: CCN1C(=O)N(c2c(F)c(OC)cc(OC)c2F)Cc2cnc3[nH]c(CN4CCOCC4)cc3c21 [Pemigatinib]
IC50 (Ba/F3(+IL‐3); BaF3, parental cells with IL-3, CCK-8, 72 h): 8980 ± 1400 nM

SMILES: Cc1ccc(C(=O)Nc2ccc(CN3CCN(C)CC3)c(C(F)(F)F)c2)cc1C#Cc1cnc2cccnn12 [Ponatinib]
IC50 (Ba/F3(+IL‐3); BaF3, 72 h): 2380 ± 420 nM
IC50 (Ba/F3‐FGFR1‐K656E): 88 ± 28 nM
fold increase of IC50 value, Ba/F3‐FGFR1‐V561M compared to Ba/F3‐FGFR1‐WT (Ba/F3‐FGFR1‐V561M): 10 fold
IC50 (Ba/F3‐FGFR1‐V561M; Mus musculus, BaF3, 72 h, read-out: IC50 (μΜ) Ba/F3‐FGFR1‐V561M): 400 ± 11 nM
IC50 (Ba/F3‐FGFR1‐K656N): 47 ± 8.8 nM
IC50 (Ba/F3‐FGFR1‐V561F [1]): 56 ± 9 nM
IC50 (Ba/F3‐FGFR1): 33 ± 2.8 nM
reported FGFR1‐V561M kinase inhibitory activity (FGFR1‐V561M): 18.6
reported FGFR1 WT kinase inhibitory activity (FGFR1 WT): 1.6
IC50 (H1581; NCI-H1581, 72 h): 128 ± 19.1 nM
IC50 (MDA‐MB‐231; read-out: antiproliferative IC50, MDA‐MB‐231): 701 ± 69.9 nM
IC50 (A549): 990 ± 54.1 nM
IC50 (A204; A204, 72 h): 169 ± 134 nM
IC50 (RT112; RT-112, 72 h): 216 ± 8.2 nM
IC50 (NCI‐H716; NCI-H716, 72 h): 26.4 ± 2.9 nM
IC50 (MDA‐MB‐453; MDA-MB-453, 72 h): 707 ± 26.4 nM
IC50 (MKN‐1; MKN-1, 72 h): 758 ± 72 nM
IC50 (SNU16): 78.2 ± 10.2 nM
IC50 (KATOIII; 72 h): 18.7 ± 0.8 nM

SMILES: C=CC(=O)N1CC[C@H](n2nc(C#Cc3cc(OC)cc(OC)c3)c3c(N)ncnc32)C1 [TAS120]
effect on cell cycle (Ba/F3‐FGFR1‐V561F [2]): weak effect
effect on apoptosis (Ba/F3‐FGFR1‐V561F [3]): weak effect
